Key:
[1] = target: Human norepinephrine transporter (NET) (Homo sapiens, UniProt P23975); assay: Binding assay to human norepinephrine transporter (NET), [3H]-Nisoxetin; conditions: human NET enriched membranes, 5 nM [3H]-Nisoxetin; read-out: Ki (nM) NET Hum
Experimental: Binding Assay to Human Norepinephrine Transporter (NET).
Human norepinephrine transporter (NET) enriched membranes (5 μg) were incubated with 5 nM of radiolabeled [3H]-Nisoxetin in assay buffer containing 50 mM Tris-HCl, 120 mM NaCl, 5 mM KCl, pH 7.4.
NSB (non specific binding) was measured by adding 1 μM. After 60 min incubation at 4° C., binding reaction was terminated by filtering through Multiscreen GF/C (Millipore) presoaked in 0.5% polyethyleneimine in Vacuum Manifold Station, followed by 3 washes with ice-cold filtration buffer containing 50 mM Tris-HCl, 0.9% NaCl, pH 7.4. Filter plates were dried at 60° C. for 1 hour and 30 μl of scintillation cocktail were added to each well before radioactivity reading.

[2] = target: Human α2δ-1 subunit of Cav2.2 calcium channel (Homo sapiens, UniProt P54289); assay: Binding assay to human α2δ-1 subunit of Cav2.2 calcium channel, [3H]-Gabapentin; conditions: human α2δ-1 enriched membranes, 15 nM [3H]-Gabapentin; read-out: Ki (nM) alpha2delta Hum
Human α2δ-1 subunit of Cav2.2 calcium channel, sequence (P54289 25-1103): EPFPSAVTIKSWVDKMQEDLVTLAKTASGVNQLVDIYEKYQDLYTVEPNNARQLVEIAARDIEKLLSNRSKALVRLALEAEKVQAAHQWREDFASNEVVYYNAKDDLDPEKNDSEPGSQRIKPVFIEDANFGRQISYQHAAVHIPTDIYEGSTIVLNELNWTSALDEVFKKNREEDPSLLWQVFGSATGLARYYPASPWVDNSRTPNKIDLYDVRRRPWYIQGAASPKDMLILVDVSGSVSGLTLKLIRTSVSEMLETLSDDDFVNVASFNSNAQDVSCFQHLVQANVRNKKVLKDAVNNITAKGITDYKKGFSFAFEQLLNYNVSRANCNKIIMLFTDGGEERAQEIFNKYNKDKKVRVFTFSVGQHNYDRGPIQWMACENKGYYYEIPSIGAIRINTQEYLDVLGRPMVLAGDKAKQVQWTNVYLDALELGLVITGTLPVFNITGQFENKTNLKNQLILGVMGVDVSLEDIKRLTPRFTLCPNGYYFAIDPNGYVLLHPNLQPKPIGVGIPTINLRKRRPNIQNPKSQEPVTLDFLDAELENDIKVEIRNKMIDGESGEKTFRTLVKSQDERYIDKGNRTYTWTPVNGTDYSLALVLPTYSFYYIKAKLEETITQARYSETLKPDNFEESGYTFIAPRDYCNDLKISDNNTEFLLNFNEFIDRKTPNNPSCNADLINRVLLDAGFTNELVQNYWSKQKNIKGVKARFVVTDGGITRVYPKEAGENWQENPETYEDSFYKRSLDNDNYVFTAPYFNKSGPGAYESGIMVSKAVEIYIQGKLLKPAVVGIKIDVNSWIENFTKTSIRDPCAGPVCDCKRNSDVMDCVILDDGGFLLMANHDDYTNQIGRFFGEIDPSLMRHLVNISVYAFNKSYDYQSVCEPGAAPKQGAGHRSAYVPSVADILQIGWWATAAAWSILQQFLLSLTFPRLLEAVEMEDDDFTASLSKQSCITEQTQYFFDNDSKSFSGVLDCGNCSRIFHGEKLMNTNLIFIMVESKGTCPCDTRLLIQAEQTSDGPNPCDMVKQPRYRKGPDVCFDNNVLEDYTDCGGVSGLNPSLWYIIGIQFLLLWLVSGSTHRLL
Experimental: Binding Assay to Human α2δ-1 Subunit of Cav2.2 Calcium Channel.
Human α2δ-1 enriched membranes (2.5 μg) were incubated with 15 nM of radiolabeled [3H]-Gabapentin in assay buffer containing Hepes-KOH 10 mM, pH 7.4.
NSB (non specific binding) was measured by adding 10 μM pregabalin. After 60 min incubation at 27° C., binding reaction was terminated by filtering through Multiscreen GF/C (Millipore) presoaked in 0.5% polyethyleneimine in Vacuum Manifold Station, followed by 3 washes with ice-cold filtration buffer containing 50 mM Tris-HCl, pH 7.4.
Filter plates were dried at 60° C. for 1 hour and 30 μl of scintillation cocktail were added to each well before radioactivity reading.
Readings were performed in a Trilux 1450 Microbeta radioactive counter (Perkin Elmer).

Human norepinephrine transporter (NET), sequence (P23975 whole entry): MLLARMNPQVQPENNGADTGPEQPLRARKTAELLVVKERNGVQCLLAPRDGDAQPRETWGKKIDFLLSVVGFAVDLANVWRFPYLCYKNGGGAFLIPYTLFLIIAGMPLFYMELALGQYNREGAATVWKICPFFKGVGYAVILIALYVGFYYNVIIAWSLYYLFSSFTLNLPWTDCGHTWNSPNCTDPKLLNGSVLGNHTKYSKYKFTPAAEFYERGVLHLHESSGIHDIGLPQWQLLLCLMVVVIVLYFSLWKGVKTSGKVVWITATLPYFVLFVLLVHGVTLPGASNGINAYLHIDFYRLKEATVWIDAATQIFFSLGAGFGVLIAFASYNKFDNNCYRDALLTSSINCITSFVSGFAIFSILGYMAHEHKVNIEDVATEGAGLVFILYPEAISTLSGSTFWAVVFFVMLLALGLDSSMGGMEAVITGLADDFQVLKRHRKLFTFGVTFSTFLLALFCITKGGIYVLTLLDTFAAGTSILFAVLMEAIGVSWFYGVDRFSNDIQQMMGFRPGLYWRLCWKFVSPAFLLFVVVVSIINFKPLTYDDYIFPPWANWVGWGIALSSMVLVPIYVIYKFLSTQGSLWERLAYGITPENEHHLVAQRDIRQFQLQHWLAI

Row | Ki [1] [nM] | Ki [2] [nM] | SMILES
1 | > 1000 | 500 to 3000 | CNCC[C@@H](c1cc(C)cs1)N1CCc2ncccc21 [Example 57, (S)-3-(2,3-Dihydro-1H-pyrrolo[3,2-b]pyridin-1-yl)-N-methyl-3-(4-methylthiophen-2-yl)propan-1-amine]
2 | > 1000 | ≥ 3000 | CNCC[C@@H](c1cccs1)N1CCc2ncc(C(C)C)cc21 [Example 38, (S)-3-(6-Isopropyl-2,3-dihydro-1H-pyrrolo[3,2-b]pyridin-1-yl)-N-methyl-3-(thiophen-2-yl)propan-1-amine]
3 | > 1000 | 100 to 500 | CNCC[C@H](c1ccsc1)N1CC(C)(C)c2nc(C(F)(F)F)ccc21 [Example 108, (R)-3-(3,3-dimethyl-5-(trifluoromethyl)-2,3-dihydro-1H-pyrrolo[3,2-b]pyridin-1-yl)-N-methyl-3-(thiophen-3-yl)propan-1-amine]
4 | > 1000 | 100 to 500 | CNCC[C@H](c1cccs1)N1CC(C)(C)c2ncccc21 [Example 20, (R)-3-(3,3-Dimethyl-2,3-dihydro-1H-pyrrolo[3,2-b]pyridin-1-yl)-N-methyl-3-(thiophen-2-yl)propan-1-amine]
5 | < 100 | 100 to 500 | CNCCC(c1cccs1)N1CCc2c(C#N)cccc21 (stereo not drawn) [Example 95, 1-(3-(Methylamino)-1-(thiophen-2-yl)propyl)indoline-4-carbonitrile]
6 | 500 to 1000 | 100 to 500 | CNCC[C@@H](c1ccc(F)s1)N1CCc2ncccc21 [Example 19, (S)-3-(2,3-dihydro-1H-pyrrolo[3,2-b]pyridin-1-yl)-3-(5-fluorothiophen-2-yl)-N-methylpropan-1-amine]
7 | > 1000 | 500 to 3000 | CCC1(CC)CN(C(CCNC)c2ccsc2)c2cccnc21 (racemic) [Example 86, 3-(3,3-Diethyl-2,3-dihydro-1H-pyrrolo[3,2-b]pyridin-1-yl)-N-methyl-3-(thiophen-3-yl)propan-1-amine]
8 | > 1000 | 100 to 500 | CNCC[C@H](c1ccsc1)N1CC(C)(C)c2ncc(F)cc21 [Example 87, (R)-3-(6-Fluoro-3,3-dimethyl-2,3-dihydro-1H-pyrrolo[3,2-b]pyridin-1-yl)-N-methyl-3-(thiophen-3-yl)propan-1-amine]
9 | > 1000 | 500 to 3000 | CNCC[C@H](c1ccsc1)N1CCc2nc(C)ccc21 [Example 62, (R)—N-methyl-3-(5-methyl-2,3-dihydro-1H-pyrrolo[3,2-b]pyridin-1-yl)-3-(thiophen-3-yl)propan-1-amine]
10 | 500 to 1000 | ≥ 3000 | CNCCC(c1ccccc1)N1CCc2ncccc21 (stereo not drawn) [Example 7, 3-(2,3-Dihydro-1H-pyrrolo[3,2-b]pyridin-1-yl)-N-methyl-3-phenylpropan-1-amine]
11 | < 100 | ≥ 3000 | CNCCC(c1ccsc1)N1CCc2ccccc21 (racemic) [Example 78, 3-(Indolin-1-yl)-N-methyl-3-(thiophen-3-yl)propan-1-amine]
12 | < 100 | 500 to 3000 | CNCC[C@@H](c1cccs1)N1CCc2c(C#N)cccc21 [Example 111, (S)-1-(3-(Methylamino)-1-(thiophen-2-yl)propyl)indoline-4-carbonitrile]
13 | > 1000 | ≥ 3000 | CNCC[C@H](c1cscc1C)N1CCc2ncccc21 [Example 51, (R)-3-(2,3-Dihydro-1H-pyrrolo[3,2-b]pyridin-1-yl)-N-methyl-3-(4-methylthiophen-3-yl)propan-1-amine]
14 | > 1000 | 100 to 500 | CNCC[C@H](c1ccsc1)N1CC(C)(C)c2nc(C(F)(F)F)ccc21 (racemic) [Example 79, 3-(3,3-Dimethyl-5-(trifluoromethyl)-2,3-dihydro-1H-pyrrolo[3,2-b]pyridin-1-yl)-N-methyl-3-(thiophen-3-yl)propan-1-amine]
15 | 500 to 1000 | 100 to 500 | CNCC[C@@H](c1ccc(Cl)s1)N1CCc2ncccc21 [Example 40, (S)-3-(5-Chlorothiophen-2-yl)-3-(2,3-dihydro-1H-pyrrolo[3,2-b]pyridin-1-yl)-N-methylpropan-1-amine]
16 | 500 to 1000 | 500 to 3000 | CNCCC(c1cccs1)N1CCc2cc(C#N)ccc21 (stereo not drawn) [Example 96, 1-(3-(Methylamino)-1-(thiophen-2-yl)propyl)indoline-5-carbonitrile]
17 | 100 to 500 | 500 to 3000 | CNCC[C@@H](c1cccs1)N1CC(C)(C)c2ncccc21 [Example 21, (S)-3-(3,3-dimethyl-2,3-dihydro-1H-pyrrolo[3,2-b]pyridin-1-yl)-N-methyl-3-(thiophen-2-yl)propan-1-amine]

Row | Ki [1] [nM] | Ki [2] [nM] | SMILES
18 | > 1000 | 500 to 3000 | CNCC[C@H](c1cccs1)N1CCc2nc(C(C)C)ccc21 [Example 48, (R)-3-(5-Isopropyl-2,3-dihydro-1H-pyrrolo[3,2-b]pyridin-1-yl)-N-methyl-3-(thiophen-2-yl)propan-1-amine]
19 | > 1000 | 100 to 500 | CNCC[C@@H](c1cccs1)N1CCc2c(C#N)cccc21 [Example 112, (S)-1-(3-(methylamino)-1-(thiophen-2-yl)propyl)indoline-4-carbonitrile]
20 | > 1000 | ≥ 3000 | CNCC[C@@H](c1cccs1)N1c2ccccc2C[C@@H]1C (racemic) [Example 119, (S/R)—N-methyl-3-((S/R)-2-methylindolin-1-yl)-3-(thiophen-2-yl)propan-1-amine]
21 | 500 to 1000 | 500 to 3000 | CNCC[C@@H](c1cccc(F)c1)N1CCc2ncccc21 [Example 82, (S)-3-(2,3-Dihydro-1H-pyrrolo[3,2-b]pyridin-1-yl)-3-(3-fluorophenyl)-N-methylpropan-1-amine]
22 | 100 to 500 | ≥ 3000 | CNCC[C@@H](c1sccc1Cl)N1CCc2ncccc21 [Example 37, (S)-3-(3-Chlorothiophen-2-yl)-3-(2,3-dihydro-1H-pyrrolo[3,2-b]pyridin-1-yl)-N-methylpropan-1-amine]
23 | < 100 | 500 to 3000 | CNCCC(c1cccs1)N1CCc2c(F)cc(F)cc21 (stereo not drawn) [Example 68, 3-(4,6-Difluoroindolin-1-yl)-N-methyl-3-(thiophen-2-yl)propan-1-amine]
24 | > 1000 | 500 to 3000 | CNCC[C@@H](c1ccsc1)N1CCc2nc(C(C)C)ccc21 [Example 47, (S)-3-(5-Isopropyl-2,3-dihydro-1H-pyrrolo[3,2-b]pyridin-1-yl)-N-methyl-3-(thiophen-3-yl)propan-1-amine]
25 | > 1000 | 100 to 500 | CNCC[C@@H](c1cccs1)N1CCc2ncc(F)cc21 [Example 27, (S)-3-(6-Fluoro-2,3-dihydro-1H-pyrrolo[3,2-b]pyridin-1-yl)-N-methyl-3-(thiophen-2-yl)propan-1-amine]
26 | > 1000 | 100 to 500 | CNCC[C@H](c1cccs1)N1CCc2ncc(C(C)C)cc21 [Example 39, (R)-3-(6-Isopropyl-2,3-dihydro-1H-pyrrolo[3,2-b]pyridin-1-yl)-N-methyl-3-(thiophen-2-yl)propan-1-amine]
27 | 500 to 1000 | 100 to 500 | CNCCC(c1cccs1)N1CC(C)(C)c2ncccc21 (stereo not drawn) [Example 12, 3-(3,3-Dimethyl-2,3-dihydro-1H-pyrrolo[3,2-b]pyridin-1-yl)-N-methyl-3-(thiophen-2-yl)propan-1-amine]
28 | > 1000 | 100 to 500 | CNCCC(c1cccs1)N1CCCc2ncccc21 (stereo not drawn) [Example 5, 3-(3,4-Dihydro-1,5-naphthyridin-1(2H)-yl)-N-methyl-3-(thiophen-2-yl)propan-1-amine]
29 | > 1000 | < 100 | CNCC[C@H](c1cccs1)N1CC(C)(C)c2ncc(F)cc21 [Example 106, (R)-3-(6-fluoro-3,3-dimethyl-2,3-dihydro-1H-pyrrolo[3,2-b]pyridin-1-yl)-N-methyl-3-(thiophen-2-yl)propan-1-amine]
30 | 100 to 500 | 100 to 500 | CCc1cnc2c(c1)N([C@H](CCNC)c1cccs1)CC2 [Example 32, (R)-3-(6-Ethyl-2,3-dihydro-1H-pyrrolo[3,2-b]pyridin-1-yl)-N-methyl-3-(thiophen-2-yl)propan-1-amine]
31 | > 1000 | 500 to 3000 | CNCC[C@@H](c1ccc(C)s1)N1CCc2ncccc21 [Example 45, (S)-3-(2,3-Dihydro-1H-pyrrolo[3,2-b]pyridin-1-yl)-N-methyl-3-(5-methylthiophen-2-yl)propan-1-amine]
32 | > 1000 | ≥ 3000 | CNCC[C@H](c1cccs1)N1c2ccccc2C[C@@H]1C [Example 118, (R)—N-methyl-3-((S)-2-methylindolin-1-yl)-3-(thiophen-2-yl)propan-1-amine]
33 | 100 to 500 | 100 to 500 | CCc1cnc2c(c1)N([C@H](CCNC)c1ccsc1)CC2 [Example 76, (R)-3-(6-Ethyl-2,3-dihydro-1H-pyrrolo[3,2-b]pyridin-1-yl)-N-methyl-3-(thiophen-3-yl)propan-1-amine]

From patent US20200207759A1, “NEW PROPANAMINE DERIVATIVES FOR TREATING PAIN AND PAIN RELATED CONDITIONS” (ESTEVE PHARMACEUTICALS, S.A., priority 2017, published 2020)
